This note sets out measurements from US8148391B2 (Cephalon, Inc., priority 2006, dated 2012).

For orientation: IC50 means the concentration that inhibits the measured activity by half.

Assay [1] deals with T1, c-Met (cytoplasmic domain) (Homo sapiens, UniProt P08581).
T1 construct: 10 ng/mL c-Met (cytoplasmic domain, Invitrogen Corporation #PV3143); purchased Invitrogen Corporation PV3143
In words: c-Met Kinase Assay (same methods as for ALK, with modifications). Format: biochemical. The conditions noted are these: 1 μM ATP (Km level). The gist of the method: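 Wells were coated with 10 μg/mL phospholipase C-γ substrate in TBS, and reactions were started with 10 ng/mL c-Met cytoplasmic domain and run at 37° C for 15 minutes. Phosphorylated product was detected with Eu-N1-labeled PT66 antibody. IC50 values came from sigmoidal variable-slope fits of percent inhibition versus log compound concentration.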

Assay [2] addresses T2, baculovirus-expressed ALK (Homo sapiens, UniProt Q9UM73).
T2 construct: host or cells: baculovirus expression system
In words: ALK Kinase Assay (ELISA-type, time-resolved fluorescence). The assay is classed as biochemical. The conditions noted are these: 1 μM ATP (Km level); read-out: ALK Activity (ALK Kinase Inhibition, IC50). The gist of the method: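 Substrate coating: phospholipase C-γ, 10 μg/mL in TBS. Kinase step: 30 ng/ml ALK, 15 min, 37° C. Detection and analysis: Eu-N1 PT66 antibody, with IC50 fitted as a sigmoidal variable-slope dose-response curve.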

Setting [3] is: read-out: cMet Activity (c-Met Kinase Inhibition, IC50).

Read-outs that look alike come from different tables or passages of the source. Some results are limits rather than exact numbers.

T2 sequence (Q9UM73 19-1620): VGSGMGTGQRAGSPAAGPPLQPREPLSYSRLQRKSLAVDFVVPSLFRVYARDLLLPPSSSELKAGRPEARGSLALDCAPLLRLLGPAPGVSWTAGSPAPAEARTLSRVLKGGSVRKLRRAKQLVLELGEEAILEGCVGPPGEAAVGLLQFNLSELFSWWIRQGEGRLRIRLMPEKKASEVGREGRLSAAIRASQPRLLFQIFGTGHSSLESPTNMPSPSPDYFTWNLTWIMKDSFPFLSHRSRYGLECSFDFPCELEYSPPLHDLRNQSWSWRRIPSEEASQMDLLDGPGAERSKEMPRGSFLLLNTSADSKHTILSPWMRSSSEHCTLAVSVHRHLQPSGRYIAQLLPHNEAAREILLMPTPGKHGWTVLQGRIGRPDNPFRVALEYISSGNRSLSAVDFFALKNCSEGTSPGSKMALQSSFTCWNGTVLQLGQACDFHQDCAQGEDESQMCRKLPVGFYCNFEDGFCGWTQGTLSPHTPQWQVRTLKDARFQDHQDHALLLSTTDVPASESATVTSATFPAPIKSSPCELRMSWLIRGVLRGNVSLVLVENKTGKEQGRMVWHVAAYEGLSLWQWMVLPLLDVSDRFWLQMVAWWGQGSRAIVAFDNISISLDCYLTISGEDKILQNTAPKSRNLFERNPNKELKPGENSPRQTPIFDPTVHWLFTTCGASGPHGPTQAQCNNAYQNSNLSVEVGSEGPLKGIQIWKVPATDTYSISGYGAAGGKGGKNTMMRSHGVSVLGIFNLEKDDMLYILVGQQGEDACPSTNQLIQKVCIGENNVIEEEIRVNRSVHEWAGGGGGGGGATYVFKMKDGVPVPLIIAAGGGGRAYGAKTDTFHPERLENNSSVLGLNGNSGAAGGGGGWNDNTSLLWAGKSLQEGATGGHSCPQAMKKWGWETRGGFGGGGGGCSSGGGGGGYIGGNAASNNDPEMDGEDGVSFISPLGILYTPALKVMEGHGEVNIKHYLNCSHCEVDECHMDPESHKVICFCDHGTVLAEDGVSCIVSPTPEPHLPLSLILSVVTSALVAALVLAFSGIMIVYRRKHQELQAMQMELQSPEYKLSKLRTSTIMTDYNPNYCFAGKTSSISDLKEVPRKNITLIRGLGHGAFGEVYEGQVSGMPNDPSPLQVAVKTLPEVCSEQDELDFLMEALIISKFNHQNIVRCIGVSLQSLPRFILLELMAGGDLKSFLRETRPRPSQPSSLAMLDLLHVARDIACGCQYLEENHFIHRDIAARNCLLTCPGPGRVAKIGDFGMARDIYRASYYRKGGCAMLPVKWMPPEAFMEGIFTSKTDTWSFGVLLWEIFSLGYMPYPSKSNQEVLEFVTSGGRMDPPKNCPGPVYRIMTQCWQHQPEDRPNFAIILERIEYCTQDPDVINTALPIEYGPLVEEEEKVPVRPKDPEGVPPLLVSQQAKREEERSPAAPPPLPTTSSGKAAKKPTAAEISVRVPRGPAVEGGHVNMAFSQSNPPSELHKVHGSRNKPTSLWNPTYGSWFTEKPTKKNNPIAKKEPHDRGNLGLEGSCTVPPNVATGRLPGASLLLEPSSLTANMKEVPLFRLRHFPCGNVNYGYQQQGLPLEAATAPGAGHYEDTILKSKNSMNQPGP
T1 sequence (P08581 956-1390 limits assumed): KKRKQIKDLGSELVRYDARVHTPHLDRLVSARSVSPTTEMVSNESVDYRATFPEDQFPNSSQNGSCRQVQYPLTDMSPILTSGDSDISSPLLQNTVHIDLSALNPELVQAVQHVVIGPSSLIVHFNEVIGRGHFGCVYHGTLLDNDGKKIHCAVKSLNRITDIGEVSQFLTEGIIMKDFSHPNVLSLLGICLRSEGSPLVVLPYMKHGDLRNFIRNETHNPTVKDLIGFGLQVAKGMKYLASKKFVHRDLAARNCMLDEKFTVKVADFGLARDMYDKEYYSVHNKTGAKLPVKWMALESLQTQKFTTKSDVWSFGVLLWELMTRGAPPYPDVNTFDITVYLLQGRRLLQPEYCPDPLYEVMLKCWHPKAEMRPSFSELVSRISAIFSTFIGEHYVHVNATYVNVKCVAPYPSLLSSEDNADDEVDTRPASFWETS

Take `COc1c(Nc2ncc(Cl)c(N[C@@H]3CCCC[C@H]3NS(C)(=O)=O)n2)ccc2c1CCCC(N1CCOCC1)C2` (stereo partly drawn) [Example 949, N-{(1R,2R)-2-[5-Chloro-2-(1-methoxy-6-morpholin-4-yl-6,7,8,9-tetrahydro-5H-benzocyclohepten-2-ylamino)-pyrimidin-4-ylamino]-cyclohexyl}-methanesulfonamide]: the values for the IC50 in assay [1] (setting [3]) and in assay [2] were above 10000 nM and below 100 nM, respectively.

Turning to `COCCN1CCc2ccc(Nc3ncc(Cl)c(Nc4ccc(N5CCN(C(C)C)CC5)c5c4C(=O)N(C)C5)n3)cc2CC1` [Example 950, 7-{5-Chloro-2-[3-(2-methoxy-ethyl)-2,3,4,5-tetrahydro-1H-3-benzazepin-7-ylamino]-pyrimidin-4-ylamino}-4-(4-isopropyl-piperazin-1-yl)-2-methyl-2,3-dihydro-isoindol-1-one], the half-maximal inhibitory concentration (IC50) in assay [1] (setting [3]) was 100 to 1000 nM; in assay [2], below 100 nM.

Regarding `COc1cc2c(cc1Nc1ncc(Cl)c(Nc3ccc(N4CCN(C(C)C)CC4)c4c3C(=O)N(C)C4)n1)CCN(CC(=O)N(C)C)CC2` [Example 951, 2-(7-{5-Chloro-4-[7-(4-isopropyl-piperazin-1-yl)-2-methyl-3-oxo-2,3-dihydro-1H-isoindol-4-ylamino]-pyrimidin-2-ylamino}-8-methoxy-1,2,4,5-tetrahydro-3-benzazepin-3-yl)-N,N-dimethyl-acetamide], the half-maximal inhibitory concentration (IC50) was above 10000 nM in assay [1] (setting [3]) and below 100 nM in assay [2].

For the compound `COc1cc(N2CCOCC2)ccc1Nc1nc(Nc2ccc3c(c2OC)CCCC(N2CCOCC2)C3)ncc1Cl` (stereo not shown) [Example 952, 5-Chloro-N(4)-(2-methoxy-4-morpholin-4-yl-phenyl)-N(2)-(1-methoxy-6-morpholin-4-yl-6,7,8,9-tetrahydro-5H-benzocyclohepten-2-yl)-pyrimidine-2,4-diamine], the IC50 in assay [1] (setting [3]) is above 10000 nM; in assay [2], below 100 nM.

Turning to `COc1cc2c(cc1Nc1ncc(Cl)c(Nc3ccc(N4CCN(C(C)C)CC4)c4c3C(=O)N(C)C4)n1)CCN(CCO)CC2` [Example 953, 7-{5-Chloro-2-[3-(2-hydroxy-ethyl)-8-methoxy-2,3,4,5-tetrahydro-1H-3-benzazepin-7-ylamino]-pyrimidin-4-ylamino}-4-(4-isopropyl-piperazin-1-yl)-2-methyl-2,3-dihydro-isoindol-1-one], the values for the half-inhibitory concentration (IC50) in assay [1] (setting [3]) and in assay [2] were above 10000 nM and below 100 nM, respectively.

Take `COCCN1CCc2ccc(Nc3ncc(Cl)c(Nc4cc(C(N)=O)n[nH]4)n3)cc2CC1` [Example 954, 5-{5-Chloro-2-[3-(2-methoxy-ethyl)-2,3,4,5-tetrahydro-1H-3-benzazepin-7-ylamino]-pyrimidin-4-ylamino}-1H-pyrazole-3-carboxylic acid amide]: the IC50 in assay [1] (setting [3]) and in assay [2] was 100 to 1000 nM throughout.

For `COCCN1CCc2ccc(Nc3ncc(Cl)c(Nc4cc(C)n[nH]4)n3)cc2CC1` [Example 955, 5-Chloro-N(2)-[3-(2-methoxy-ethyl)-2,3,4,5-tetrahydro-1H-3-benzazepin-7-yl]-N(4)-(5-methyl-2H-pyrazol-3-yl)-pyrimidine-2,4-diamine], the IC50 in assay [1] (setting [3]) fell in the range of 1000 to 10000 nM; in assay [2], 100 to 1000 nM.

For `COCCNC1CCCc2c(ccc(Nc3ncc(Cl)c(N[C@H]4[C@@H](C(N)=O)[C@@H]5C=C[C@H]4C5)n3)c2OC)C1` (stereo partly drawn) [Example 956, (1S,2S,3R,4R)-3-{5-Chloro-2-[1-methoxy-6-(2-methoxy-ethylamino)-6,7,8,9-tetrahydro-5H-benzocyclohepten-2-ylamino]-pyrimidin-4-ylamino}-bicyclo[2.2.1]hept-5-ene-2-carboxylic acid amide], the IC50 in assay [1] (cMet Activity (c-Met Kinase Inhibition, IC50)) was above 10000 nM; in assay [2] it was below 100 nM.

In the case of `COCCNC1CCCc2c(ccc(Nc3ncc(Cl)c(Nc4ccccc4S(=O)(=O)N(C)C)n3)c2OC)C1` (stereo not shown) [Example 957, 2-{5-Chloro-2-[1-methoxy-6-(2-methoxy-ethylamino)-6,7,8,9-tetrahydro-5H-benzocyclohepten-2-ylamino]-pyrimidin-4-ylamino}-N,N-dimethyl-benzenesulfonamide], the 50% inhibitory concentration (IC50) is above 10000 nM in assay [1] (setting [3]) and below 100 nM in assay [2].

Regarding `COCCNC1CCCc2c(ccc(Nc3ncc(Cl)c(N[C@@H]4CCCC[C@H]4NS(C)(=O)=O)n3)c2OC)C1` (stereo partly drawn) [Example 958, N-((1R,2R)-2-{5-Chloro-2-[1-methoxy-6-(2-methoxy-ethylamino)-6,7,8,9-tetrahydro-5H-benzocyclohepten-2-ylamino]-pyrimidin-4-ylamino}-cyclohexyl)-methanesulfonamide], the values for the IC50 in assay [1] (setting [3]) and in assay [2] were above 10000 nM and below 100 nM, respectively.

Regarding `COCCNC1CCCc2c(ccc(Nc3ncc(Cl)c(Nc4ccccc4S(=O)(=O)C(C)C)n3)c2OC)C1` (stereo not shown) [Example 959, 5-Chloro-N(2)-[1-methoxy-6-(2-methoxy-ethylamino)-6,7,8,9-tetrahydro-5H-benzocyclohepten-2-yl]-N(4)-[2-(propane-2-sulfonyl)-phenyl]-pyrimidine-2,4-diamine], the concentration for half-maximal inhibition (IC50) in assay [1] (setting [3]) is above 10000 nM; in assay [2], below 100 nM.

Regarding `COc1c(Nc2ncc(Cl)c(Nc3ccccc3S(=O)(=O)C(C)C)n2)ccc2c1CCCC(NCCO)C2` (stereo not shown) [Example 961, 2-(2-{5-Chloro-4-[2-(propane-2-sulfonyl)-phenylamino]-pyrimidin-2-ylamino}-1-methoxy-6,7,8,9-tetrahydro-5H-benzocyclohepten-6-ylamino)-ethanol], the 50% inhibitory concentration (IC50) in assay [1] (setting [3]) was above 10000 nM; in assay [2], below 100 nM.

In the case of `COc1c(Nc2ncc(Cl)c(Nc3ccccc3S(=O)(=O)N3CC[C@@H](O)C3)n2)ccc2c1CCCC(NCCO)C2` (stereo partly drawn) [Example 962, (R)-1-(2-{5-Chloro-2-[6-(2-hydroxy-ethylamino)-1-methoxy-6,7,8,9-tetrahydro-5H-benzocyclohepten-2-ylamino]-pyrimidin-4-ylamino}-benzenesulfonyl)-pyrrolidin-3-ol], the IC50 in assay [1] (setting [3]) is above 10000 nM; in assay [2] it was below 100 nM.

In the case of `COc1c(Nc2ncc(Cl)c(Nc3ccccc3S(=O)(=O)N3CC[C@H](O)C3)n2)ccc2c1CCCC(NCCO)C2` (stereo partly drawn) [Example 963, (S)-1-(2-{5-Chloro-2-[6-(2-hydroxy-ethylamino)-1-methoxy-6,7,8,9-tetrahydro-5H-benzocyclohepten-2-ylamino]-pyrimidin-4-ylamino}-benzenesulfonyl)-pyrrolidin-3-ol], the concentration for half-maximal inhibition (IC50) was 1000 to 10000 nM in assay [1] (setting [3]) and below 100 nM in assay [2].

As for `COc1c(Nc2ncc(Cl)c(Nc3ccccc3S(=O)(=O)N3CCCC3)n2)ccc2c1CCCC(NCCO)C2` (stereo not shown) [Example 964, 2-(2-{5-Chloro-4-[2-(pyrrolidine-1-sulfonyl)-phenylamino]-pyrimidin-2-ylamino}-1-methoxy-6,7,8,9-tetrahydro-5H-benzocyclohepten-6-ylamino)-ethanol], the IC50 in assay [1] (setting [3]) is above 10000 nM; in assay [2] it was below 100 nM.

`COc1c(Nc2ncc(Cl)c(N[C@@H]3CCCC[C@H]3NS(C)(=O)=O)n2)ccc2c1CCCC(NCCO)C2` (stereo partly drawn) [Example 965, N-((1R,2R)-2-{5-Chloro-2-[6-(2-hydroxy-ethylamino)-1-methoxy-6,7,8,9-tetrahydro-5H-benzocyclohepten-2-ylamino]-pyrimidin-4-ylamino}-cyclohexyl)-methanesulfonamide]: the results for the IC50 in assay [1] (setting [3]) and in assay [2] were above 10000 nM and below 100 nM, respectively.

In the case of `Cc1cccnc1-c1ccccc1Nc1nc(Nc2ccc3c(c2)C(C)(C)CCC(=O)N3)ncc1Cl` [Example 971, 7-{5-Chloro-4-[2-(3-methyl-pyridin-2-yl)-phenylamino]-pyrimidin-2-ylamino}-5,5-dimethyl-1,3,4,5-tetrahydro-benzo[b]azepin-2-one], the results for the 50% inhibitory concentration (IC50) in assay [1] (setting [3]) and in assay [2] were 1000 to 10000 nM and below 100 nM, respectively.
